From US20240002870A1, “RAPID TRANSFORMATION OF MONOCOT LEAF EXPLANTS” (PIONEER HI-BRED INTERNATIONAL, INC., priority 2020, published 2024)
Where “and” joins values, the source holds several entries; their conditions need not be identical. Identical values can stand only once.

Experiments:
[1] = test system: Pioneer inbred PHH5E leaf segments; experiment: Auxin (2,4-D) pre-treatment of seedlings prior to Agrobacterium infection (Table 29); format: cell-based, maize; conditions: for T-DNA Delivery: PHP71539 plus PHP97334
[2] = test system: inbred PHH5E seedling-derived leaf segments; experiment: Seedling pre-treatment with ancymidol before leaf transformation; format: cell-based, maize; conditions: PHP97334
[3] = test system: Japonica rice (Oryza sativa var Kitaake), teff (Eragrostis tef), pearl millet (Pennisetum glaucum) seedlings; experiment: Ancymidol pretreatment during seed germination and seedling growth of other cereals; format: cell-based; conditions: 1 mg/l in 900 medium; all three cereal crops
Experimental: Both […] ancymidol pretreatments during seed germination and seedling growth were tested (using medium 900 plus 1 mg/l or 2 mg/l ancymidol) on three cereals Japonica rice (Oryza sativa var Kitaake), teff (Eragrostis tef), and pearl millet (Pennisetum glaucum). […] When seed from all three species were germinated and grown on 900 medium plus 2 mg/l ancymodiol, the seedlings only grew to a height of 1-2 cm after 14 days and although the leaf-whorl region was thicker (due to wider leaves), processing these small seedlings to produce leaf segments followed by transformation was more difficult.
In contrast, for all three cereal crops, seed germination and seedling growth on 900 plus 1 mg/l ancymidol produced an intermediate growth rate, with thicker stems and wider leaves than the control (with no ancymidol). […] Thus, compared to maize and sorghum in which 2 mg/l ancymidol pretreatment during seedling growth is optimal for leaf transformation, a lower concentration of 1 mg/l ancymidol produced optimal results in rice, tef, and pearl millet.

[4] = test system: maize plants with edited or wild-type ALS2 alleles; experiment: Chlorsulfuron resistance test of plants with edited and wild-type ALS2 alleles (spray, germination on medium); format: in vivo; conditions: for plants fourteen days after germination on media: 100 ppm; for phenotype three weeks after treatment: spray 50, 100 (1x), 200, 400 mg/liter

With `O=C(O)COc1ccc(Cl)cc1Cl` [2,4-D, 2,4-dichlorophenoxyacetic acid] the “No. SC Clean (single-copy T-DNA integration with no extraneous Agrobacterium sequences)” value (shortened to “No. SC Clean”) ([1]; 3 mg/l 2,4-D for 24 hours) was 18, the “No. SC Clean” value ([1]; 10 mg/l 2,4-D for 24 hours) was 40 and the “T-DNA Delivery” value ([1]; 10 mg/l 2,4-D for 24 hours before infection) was 4 (90-100%). The “effect on leaf transformation (Txn %, single-copy T-DNA integrations) compared to the control treatment” value ([1]; 10 mg/l, 24 hours) was “improved leaf transformation”, the “No. SC Clean” value ([1]; 30 mg/l 2,4-D for 24 hours) was 19 and the “T-DNA Delivery” value ([1]; 30 mg/l 2,4-D for 24 hours before infection) was 4 (90-100%).
`COc1ccc(C(O)(c2cncnc2)C2CC2)cc1` (centres unmarked) [Ancymidol, ancymidol] was tested, and the Txn % ([2]; 2 mg/l) was 236% and 358% and 303%, the Txn % ([2]; 2 mg/l, listed as ancymidol) was 302% and the Txn % ([2]; 2 mg/l, total over three experiments) was 302%. The Txn % ([2]; 4 mg/l) was 234% and 252% and 253%, the Txn % ([2]; 4 mg/l, listed as ancymidol) was 246% and the Txn % ([2]; 4 mg/l, total over three experiments) was 246%. For the same molecule, the “transgenic T0 plantlets compared to the other two treatments” value [3] was “produced the highest number of transgenic TO plantlets”.
`COc1nc(C)nc(NC(=O)NS(=O)(=O)c2ccccc2Cl)n1` [chlorsulfuron] was tested, and the “plants fourteen days after germination on media” value ([4]; plants with edited alleles) was “normal height and a well-developed root system”, the “plants fourteen days after germination on media” value ([4]; plants with wild-type alleles) was “short and do not develop roots” and the “phenotype three weeks after treatment” value ([4]; T1 plants with only wild-type alleles) was “strong signs of senescence”. For the same molecule, the “phenotype three weeks after treatment” value ([4]; four-week old T1 plants with an edited ALS2 allele) was “normal phenotype”.
